Assay results: PMC11505029, “Isatin Bis-Imidathiazole Hybrids Identified as FtsZ Inhibitors with On-Target Activity Against Staphylococcus aureus” (Antibiotics, 2024)
Like-named read-outs stand apart in the source and are kept apart here.

Key:
S. aureus ATCC 25923 = assay: broth microdilution antimicrobial activity, S. aureus reference strain; assay type: cell-based, Staphylococcus aureus; settings: Staphylococcus aureus; for IC50: ATCC25923, S. aureus ATCC 25923, mean [95% confidence interval]
Experimental: (§1) Reference bacterial strains of Staphylococcus aureus (ATCC 25923), Escherichia coli (ATCC 25922), and Candida albicans (ATCC 10231) were used in this study as Gram-positive, Gram-negative, and fungal models, respectively. These reference strains were purchased from the American Type Culture Collection (ATCC, Manassas, VA, USA); bacterial cultures were routinely grown at 37 °C on 5% blood agar plate, while fungal cultures on Sabouraud Dextrose Agar (Biolife Italiana S.r.l., Milan, Italy).
(§2) The dry powder of the isatin derivatives was resuspended in dimethylsulfoxide (DMSO) at 20 mM and used as stock solutions. For biological investigations, compounds were used in the range 100–0.78 µM, and the solvent in the corresponding percentage range.
(§3) The antimicrobial activity of the compounds was assessed by a well-established broth microdilution procedure in microtiter plates and in compliance with the Clinical and laboratory Standard Institute (CLSI) guidelines (Clinical and Laboratory Standards Institute, Wayne, PA, USA). In short, microbial inocula were prepared at 0.5 McFarland in PBS and, subsequently, bacterial suspensions were diluted 1:200 in Mueller–Hinton broth (Sigma-Aldrich, St. Louis, MO, USA), while fungal inoculum was diluted 1:20 in RPMI-1640 medium (Gibco®, ThermoFisher Scientific Inc., Waltham, MA, USA), containing 2% glucose and 0.3% levo-glutamine buffered to pH 7.0 with 0.165 M 3-(N-morpholino)propanesulfonic acid (MOPS). A total of 100 µL of these microbial suspensions were introduced in a 96-well microplate and incubated with 100 µL of the compounds, two-fold serially diluted in the range of 100–0.19 µM. Positive controls (microbial suspensions in regular media), negative controls (only compounds), and solvent controls (microbial suspensions incubated with DMSO dilutions) were included in the tests. The plate was incubated at 37 °C for 24 h, and subsequently, the optical density at 630 nm (OD630nm) was spectrophotometrically measured. Each experiment was carried out with three technical replicates (i.e., three wells per sample) and repeated at least two times for statistical power. […] IC50 values, corresponding to the concentration of the compound giving rise to an inhibition of growth of 50%, were obtained by interpolation on dose–response curves generated by plotting the percentages of growth inhibition, relative to the positive control (set to 100% of growth), as a function of the tested concentrations (on a logarithm scale). Statistical analysis was carried out using GraphPad Prism version 9.4.1 for Windows (GraphPad Software, San Diego, CA, USA, www.graphpad.com).

E. coli ATCC 25922 = assay: broth microdilution antimicrobial activity, E. coli reference strain; assay type: cell-based, Escherichia coli; settings: Escherichia coli
Experimental: as §1, §2, §3

C. albicans ATCC 10231 = assay: broth microdilution antimicrobial activity, C. albicans reference strain; assay type: cell-based, Candida albicans; settings: Candida albicans
Experimental: as §1, §2, §3

[1] = test system: Vero cell line (ATCC CCL-81); assay: cell viability and proliferation assay (WST8/CCK-8); assay type: cell-based; settings: for viability at 100 µM: Chlorocebus sabaeus, Vero, 48 h, read-out: Cell proliferation, Vero
Experimental: (§4) Vero cell line (ATCC CCL-81) was selected as the model system to assess the effect of the isatin hybrids on normal epithelial cells, and a previously established protocol was used with minor modifications. Briefly, cells were cultured in RPMI-1640 medium supplemented with 10% fetal bovine serum (FBS) (Carlo Erba Reagents, Milan, Italy), 100 U/mL penicillin, and 100 µg/mL streptomycin at 37 °C with 5% CO2. For experiments, cells were seeded into 96-well plates at 10^4 cells/well, and incubated at 37 °C for 24 h. Following washes with PBS, the cell monolayer was incubated with 100 µL of medium containing the 2-fold serial dilutions of the compounds. Both untreated cells and cells incubated with medium containing solvent dilutions were included in each experiment as controls. The cell viability was assessed by a WST8-based assay according to the manufacturer’s instructions (CCK-8, Cell Counting Kit-8, Dojindo Molecular Technologies, Rockville, MD, USA). After 48 h of incubation, culture medium was removed from each well, the monolayer was washed with PBS, and 100 µL of fresh medium containing 10 µL of CCK-8 solution were added. After 2 h at 37 °C, the OD450nm was read, and data were expressed as the percentage of the cell viability relative to the untreated controls. The CC50 was obtained from the corresponding dose–response curves generated, as previously reported for IC50 values.

[2] = as above; assay type: cell-based; settings: African green monkey, Vero cells (ATCC CCL-81); Vero cells; mean [95% confidence interval]
Experimental: as §4

[3] = ATCC25923, 100 μM, growth relative to positive control, mean ± SD, read-out: Microbial growth, S. aureus
[4] = ATCC25922, 100 μM, growth relative to positive control, mean ± SD, read-out: Microbial growth, E. coli
[5] = ATCC10231, 100 μM, growth relative to positive control, mean ± SD, read-out: Microbial growth, C. albicans
[6] = 100 μM, viability relative to untreated controls, mean ± SD
[7] = ATCC25923, read-out: Microbial growth, S. aureus
[8] = ATCC25922, read-out: Microbial growth, E. coli
[9] = ATCC10231, read-out: Microbial growth, C. albicans

SMILES	activity at 100 µM (S. aureus ATCC 25923; [3])	activity at 100 µM (E. coli ATCC 25922; [4])	activity at 100 µM (C. albicans ATCC 10231; [5])	viability at 100 µM [1, 6]	activity at 100 µM (S. aureus ATCC 25923; [7])	activity at 100 µM (E. coli ATCC 25922; [8])	activity at 100 µM (C. albicans ATCC 10231; [9])	viability at 100 µM [1]	also measured
O=C1N(Cc2ccccc2)c2ccccc2C1(c1c(Cl)nc2sccn12)c1c(Cl)nc2sccn12 [Compound 13, 1-Benzyl-3,3-bis(6-chloroimidazo[2,1-b]thiazol-5-yl)indolin-2-one]	92 ± 4%	96.2 ± 4%	113.7 ± 0.7%	56.8 ± 0.1%					Cell proliferation, Vero [1, 6]: less active
Cc1cn2c(C3(c4c(Cl)nc5sc(C)cn45)C(=O)N(Cc4ccccc4)c4ccccc43)c(Cl)nc2s1 [Compound 14, 1-Benzyl-3,3-bis(6-chloro-2-methylimidazo[2,1-b]thiazol-5-yl)indolin-2-one]	107 ± 3.9%	99 ± 0.4%	116 ± 1.2%	104 ± 1.9%					
O=C1N(CC=Cc2ccccc2)c2ccccc2C1(c1c(Cl)nc2sccn12)c1c(Cl)nc2sccn12 [Compound 15, 3,3-bis(6-Chloroimidazo[2,1-b]thiazol-5-yl)-1-cinnamylindolin-2-one]	< 30%	69.5 ± 1.8%	60.7 ± 1.7%	101 ± 1.5%					IC50 (S. aureus ATCC 25923): 90.1 µM; CC50 at 48 h [2]: > 100 µM
Cc1cn2c(C3(c4c(Cl)nc5sc(C)cn45)C(=O)N(CC=Cc4ccccc4)c4ccccc43)c(Cl)nc2s1 [Compound 16, 3,3-bis(6-Chloro-2-methylimidazo[2,1-b]thiazol-5-yl)-1-cinnamylindolin-2-one]	69.1 ± 4.3%	69.2 ± 0.9%	60.3 ± 1.1%	93.3 ± 1.9%					
O=C1Nc2cccc(C(F)(F)F)c2C1(O)c1c(Cl)nc2sccn12 (stereo not shown) [Compound 17, 3-(6-Chloroimidazo[2,1-b]thiazol-5-yl)-3-hydroxy-4-(trifluoromethyl)indolin-2-one]					149 ± 3.8%	104 ± 1.6%	132 ± 3.9%	103.1 ± 1%	
Cc1cn2c(C3(O)C(=O)Nc4cccc(C(F)(F)F)c43)c(Cl)nc2s1 (stereo not shown) [Compound 18, 3-(6-Chloro-2-methylimidazo[2,1-b]thiazol-5-yl)-3-hydroxy-4-(trifluoromethyl)indolin-2-one]					101 ± 3.1%	109 ± 3.5%	97.1 ± 0.9%	93.1 ± 2.9%	
O=C1Nc2cccc(I)c2C1(O)c1c(Cl)nc2sccn12 (stereo not shown) [Compound 19, 3-(6-Chloroimidazo[2,1-b]thiazol-5-yl)-3-hydroxy-4-iodoindolin-2-one]					148 ± 4.8%	95.2 ± 2.6%	131 ± 7.5%	98.9 ± 2.6%	
Cc1cn2c(C3(O)C(=O)Nc4cccc(I)c43)c(Cl)nc2s1 (stereo not shown) [Compound 20, 3-(6-Chloro-2-methylimidazo[2,1-b]thiazol-5-yl)-3-hydroxy-4-iodoindolin-2-one]					104 ± 4%	98 ± 1.3%	108 ± 2.7%	101 ± 2.4%	
COc1cccc2c1C(=O)c1c(O)c3c(c(O)c1C2=O)C[C@@](O)(C(=O)CO)C[C@@H]3O[C@H]1C[C@H](N)[C@H](O)[C@H](C)O1 [DOX, doxorubicin, reference compound]									CC50 at 48 h [2]: 70.6 µM
CNC(C)C1CCC(N)C(OC2C(N)CC(N)C(OC3OCC(C)(O)C(NC)C3O)C2O)O1 (stereo not shown) [GMN, gentamicin, reference compound]									IC50 (S. aureus ATCC 25923): 4 µM
